Tests used:
CYP2C9 = CYP2C9 (Homo sapiens, UniProt P11712); experiment: Luminescent CYP2C9 P450-Glo assay; conditions: 10 and 25 µM
[1] = tested on: capsaicin-induced nociceptive response, mice; experiment: Capsaicin-induced pain model; assay type: in vivo
Excerpt: Capsaicin activates C polymodal fibers and enhances their firing, which contributes to subsequent hyperalgesia. The molecular mechanism of action of capsaicin is the activation of the nonselective cation channel, transient receptor potential vanilloid-1 (TRPV1), which is localized on nociceptive free nerve endings. That induces the release of proinflammatory neuropeptides such as calcitonin gene-related peptide (CGRP), vasoactive intestinal peptide (VIP), and substance P (SP). The phenomenon of the induction of tissue inflammation by the peripheral nervous system is called neurogenic inflammation, and it is involved in the development of inflammatory and neuropathic pain. AEDs such as gabapentin, topiramate, or lamotrigine decrease capsaicin-induced nocifensive behavior [25].
The experimental groups consisted of 6–12 adult male Albino Swiss mice (CD-1, 18–25 g). Each animal was tested only once. […]
The experimental in vivo procedures were previously reported for the formalin test; compounds 4 and 30 were tested in three doses—40, 80, 120 mg/kg (4), and 20, 40, 80 mg/kg (30). […] The in vivo procedure for the model of capsaicin-induced nociception was previously reported; the animals were pretreated with vehicle (10 mL/kg, negative control) and the dose–response of investigated compounds was evaluated at 40, 80, 120 mg/kg (4), and 20, 40, 80 mg/kg (30). […]

[2] = Parallel artificial membrane permeability assay (PAMPA)
Description: Passive diffusion was tested in the parallel artificial membrane permeability assay (PAMPA) and expressed as the permeability coefficient (Pe). A highly permeable compound, caffeine (CFN), and a poorly permeable compound, norfloxacin (NFX), were used as the references.
Precoated PAMPA Plate System Gentest™ was provided by Corning, (Tewksbury, MA, USA).

Na+ channel (site 2) = experiment: Radioligand binding, Na+ channel (site 2); conditions: 10 µM; rat cerebral cortex
Description: Taking into consideration the structural similarities of molecules described in the current manuscript with their chemical prototypes AS-1 and DK-1, the binding studies toward aforementioned molecular targets were performed commercially for several active substances from each subseries (3, 4, 21, 24, 25, 27, 29, and 30). Furthermore, we also tested two other and well-known targets for AEDs, namely, the Cav2.2 (N-type) calcium channel and gamma-aminobutyric acid (GABA)-A receptor. With the aim of excluding potentially dangerous proarrhythmic properties for each compound, their interaction with the potassium (hERG) channel was also tested.
Binding studies were carried out commercially in Eurofines Laboratories (Poitiers, France). The functional assays were performed in Eurofins Panlabs Discovery Services Taiwan, Ltd. (New Taipei City, Taiwan). All procedures are described elsewhere (for details, see Table S4 in Supplementary Materials).
Binding studies were carried out commercially in Eurofines Laboratories (Poitiers, France). The
functional assays were performed in Eurofins Panlabs Discovery Services Taiwan, Ltd. (New Taipei
City, Taiwan). All procedures are described elsewhere (Table S4).
Table S4. In vitro binding and functional assays. […]

[3] = tested on: 6 Hz (32 mA) seizures, mice; experiment: Psychomotor 6 Hz (32 mA) seizure model; assay type: in vivo; conditions: Mus musculus, ip; for responders at 100 mg/kg: 0.5 h, read-out: 6 Hz (32 mA) test, number of mice protected / number of mice tested (converted)
hepatoma HepG2 cells = experiment: Hepatotoxicity, MTS cell viability assay; assay type: cell-based; conditions: 100 µM, 72 h
Description: The hepatotoxicity assessment was done with use of hepatoma HepG2 cells, which were incubated for 72 h in the presence of 1–100 µM concentrations of 4, 24, and 30. The CellTiter 96® aqueous nonradioactive cell proliferation assay (MTS) purchased from Promega (Madison, WI, USA) was used for determination of cell viability. The absorbance was measured using a microplate reader EnSpire (PerkinElmer, Waltham, MA, USA) at 492 nm. The obtained results confirmed the safety of the investigated series.
These studies were performed on hepatoma HepG2 cells, according to a protocol reported previously

[4] = tested on: tactile allodynia in OXPT-treated mice; experiment: Oxaliplatin (OXPT)-induced peripheral neuropathy, von Frey test; assay type: in vivo
Description: In order to investigate the analgesic activity of the most promising compound 30 in a neuropathic pain model, we tested it in oxaliplatin (OXPT)-induced peripheral neuropathy, in which mechanical and cold allodynia result from impaired function of ion channels, among others. The early phase of neuropathic pain appears hours after OXPT administration, while the late phase develops days after OXPT. Thus, we tested compound 30 3 h and 7 days after the injection of OXPT. We investigated the influence of compound 30 on tactile allodynia using the von Frey method. Three hours after the administration of OXPT we observed a significant decrease in the mean value of force that caused paw withdrawal reaction (1.89 ± 0.04 g) (64.2% of the baseline) compared to nontreated animals (2.94 ± 0.06 g) (the baseline). Seven days after OXPT administration, the pain threshold was 2.00 ± 0.03 (68.0% of the baseline). […] In the late phase, the values of pain threshold were as follows 2.18 ± 0.06 g, 2.60 ± 0.08 g, and 2.91 ± 0.05 g, which correspond to 74.1%, 88.4%, and 98.9% of the baseline value.
The experimental groups consisted of 6–12 adult male Albino Swiss mice (CD-1, 18–25 g). Each animal was tested only once. Immediately after the assay, the animals were sacrificed by cervical dislocation. Behavioral measurements were observed by trained observers. The in vivo antinociceptive assays were in accordance with Polish regulations and European Union Directive of 22 September 2010 (2010/63/EU). All procedures were carried out according to the rules of the International Council on Laboratory Animal Science (ICLAS) and were approved by the Local Ethical Committee in Cracow, Poland (approval No 104/2015, 111/2016, and 179/2017). The tested substances were suspended in 1% aqueous solution of Tween-80 and were injected i.p. 30 min prior to the test. Control group animals (negative control) were administered with an appropriate amount of vehicle (Tween-80, 1% aqueous solution, i.p.) 30 min prior to the test.
The experimental in vivo procedures were previously reported for the formalin test; compounds 4 and 30 were tested in three doses—40, 80, 120 mg/kg (4), and 20, 40, 80 mg/kg (30). Before formalin application, different groups of animals were injected i.p. with vehicle (10 mL/kg, negative control). The in vivo procedure for the model of capsaicin-induced nociception was previously reported; the animals were pretreated with vehicle (10 mL/kg, negative control) and the dose–response of investigated compounds was evaluated at 40, 80, 120 mg/kg (4), and 20, 40, 80 mg/kg (30). The in vivo procedure for the model of OXPT-induced peripheral neuropathy was previously reported; the mice with developed tactile allodynia were pretreated i.p. with test compound 30 (20, 40, and 80 mg/kg) and vehicle.
Data are presented as means ± standard error of the mean (SEM). The GraphPad Prism Software (v.5) was used to analyze the vast majority of data. Statistically significant differences between groups were calculated using one-way analysis of variance (ANOVA) and the post hoc Dunnett’s multiple comparison test or two-way analysis of variance (ANOVA). The criterion for significance was set at p < 0.05.

CYP3A4 = target: T1, CYP3A4 (Homo sapiens, UniProt P08684); experiment: Luminescent CYP3A4 P450-Glo assay; assay type: in vitro ADME; conditions: 1 µM
T1 construct: purchased Promega (Madison, WI, USA)
T1 sequence (P08684 whole entry): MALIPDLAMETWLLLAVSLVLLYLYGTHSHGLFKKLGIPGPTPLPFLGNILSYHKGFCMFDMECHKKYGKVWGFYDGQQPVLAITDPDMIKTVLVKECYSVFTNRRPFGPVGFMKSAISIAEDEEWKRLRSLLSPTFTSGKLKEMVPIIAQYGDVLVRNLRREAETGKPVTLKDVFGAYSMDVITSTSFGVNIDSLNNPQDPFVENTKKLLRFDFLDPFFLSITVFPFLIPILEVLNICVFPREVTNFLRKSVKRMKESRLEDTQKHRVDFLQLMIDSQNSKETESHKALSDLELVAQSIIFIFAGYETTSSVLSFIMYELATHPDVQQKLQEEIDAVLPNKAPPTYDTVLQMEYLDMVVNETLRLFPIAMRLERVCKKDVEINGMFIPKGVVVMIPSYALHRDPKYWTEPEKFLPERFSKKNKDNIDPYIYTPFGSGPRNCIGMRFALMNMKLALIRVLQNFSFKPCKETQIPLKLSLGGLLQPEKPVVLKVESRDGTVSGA

[5] = early phase (3 h after OXPT), 20 mg/kg i.p.
[6] = early phase (3 h after OXPT), 40 mg/kg i.p.
[7] = early phase (3 h after OXPT), 80 mg/kg i.p.
[8] = late phase (7 days after OXPT), 20 mg/kg i.p.
[9] = late phase (7 days after OXPT), 40 mg/kg i.p.
[10] = late phase (7 days after OXPT), 80 mg/kg i.p.

Chain of CYP2C9 (P11712 whole entry): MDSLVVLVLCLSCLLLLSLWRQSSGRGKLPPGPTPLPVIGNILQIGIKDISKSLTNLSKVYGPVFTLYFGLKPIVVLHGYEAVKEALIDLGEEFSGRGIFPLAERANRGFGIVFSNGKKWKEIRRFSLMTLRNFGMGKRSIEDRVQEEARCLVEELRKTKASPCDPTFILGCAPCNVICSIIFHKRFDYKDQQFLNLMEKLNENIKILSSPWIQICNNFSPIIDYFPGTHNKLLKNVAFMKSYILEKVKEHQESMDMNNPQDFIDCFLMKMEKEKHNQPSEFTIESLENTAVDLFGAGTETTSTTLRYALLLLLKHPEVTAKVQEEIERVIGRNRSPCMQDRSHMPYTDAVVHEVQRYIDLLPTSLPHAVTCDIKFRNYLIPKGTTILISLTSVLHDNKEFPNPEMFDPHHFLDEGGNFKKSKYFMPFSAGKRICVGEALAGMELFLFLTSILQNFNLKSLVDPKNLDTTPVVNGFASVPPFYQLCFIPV

O=C(Nc1ccccc1F)C(c1ccccc1)N1C(=O)CCC1=O (stereo not shown) [Compound 4, 2-(2,5-Dioxopyrrolidin-1-yl)-N-(2-fluorophenyl)-2-phenylacetamide]
effect on CYP2C9 activity (CYP2C9): blocked its activity
attenuation of nociceptive response in capsaicin-induced pain ([1]; i.p., 120 mg/kg): 37.9%
Papp [2]: 11.2 ± 0.7 ×10⁻⁶ cm/s
% Inhibition of Control Specific Binding, Na+ Channel (Site 2) (Antagonist Radioligand) (Na+ channel (site 2)): 23.5%
responders at 100 mg/kg [3]: 25%

O=C(NCCc1cccc(OC(F)(F)F)c1)C(c1ccccc1)N1C(=O)CCC1=O (stereo not shown) [Compound 30, 2-(2,5-Dioxopyrrolidin-1-yl)-2-phenyl-N-(3-(trifluoromethoxy)phenethyl)acetamide]
effect on CYP2C9 activity (CYP2C9): blocked its activity
effect on HepG2 cells viability (hepatoma HepG2 cells): statistically significant (p < 0.001) effect on cells viability
ED50 ([1]; Mus musculus, ip, i.p. 30 min before test): 35.3 mg/kg
pain sensitivity threshold (von Frey, force causing paw withdrawal) [4, 5]: 2.26 ± 0.08 g
pain threshold, % of the baseline value [4, 5]: 76.8%
pain sensitivity threshold (von Frey, force causing paw withdrawal) [4, 6]: 2.49 ± 0.05 g
pain threshold, % of the baseline value [4, 6]: 84.7%
pain sensitivity threshold (von Frey, force causing paw withdrawal) [4, 7]: 2.97 ± 0.05 g
pain threshold, % of the baseline value [4, 7]: 101.0%
pain threshold (von Frey) [4, 8]: 2.18 ± 0.06 g
pain threshold, % of the baseline value [4, 8]: 74.1%
pain threshold (von Frey) [4, 9]: 2.60 ± 0.08 g
pain threshold, % of the baseline value [4, 9]: 88.4%
pain threshold (von Frey) [4, 10]: 2.91 ± 0.05 g
pain threshold, % of the baseline value [4, 10]: 98.9%
effect on CYP3A4 activity (CYP3A4): slightly inhibited CYP3A4 activity
Papp [2]: 13.2 ± 1.5 ×10⁻⁶ cm/s
% Inhibition of Control Specific Binding, Na+ Channel (Site 2) (Antagonist Radioligand) (Na+ channel (site 2)): 15.8%
responders at 100 mg/kg [3]: 75%
ED50 ([3]; at TPE (0.5 h; LTG 1.0 h), 95% confidence intervals in parentheses): 39.5 mg/kg

Source: paper PMC7699745, “The Search for New Anticonvulsants in a Group of (2,5-Dioxopyrrolidin-1-yl)(phenyl)Acetamides with Hybrid Structure—Synthesis and In Vivo/In Vitro Studies” (International Journal of Molecular Sciences, 2020)
